According to patent publication US20220062240A1, “METHODS OF TREATING CANCER USING A CLK INHIBITOR” (BioSplice Therapeutics, Inc., priority 2018, published 2022):
Read-outs that look alike come from different tables or passages of the source.

Tests used:
BT-549 = assay: CellTiter-Glo Viability Assay, breast cancer; type: cell-based; conditions: Homo sapiens, 96 h; BT-549, breast cancer, four days; read-out: EC50
CAMA1 = assay: CellTiter-Glo Viability Assay, breast cancer; type: cell-based; conditions: Homo sapiens, CAMA-1, 96 h; CAMA1, breast cancer, four days; read-out: EC50
ZR-75-1 = assay: CellTiter-Glo Viability Assay, breast cancer; type: cell-based; conditions: Homo sapiens, 96 h; ZR-75-1, breast cancer, four days; read-out: EC50
MDA-MB-231-Luc = assay: CellTiter-Glo Viability Assay, breast cancer; type: cell-based; conditions: Homo sapiens, 96 h; MDA-MB-231-Luc, breast cancer, four days; read-out: EC50
MCF7 = assay: CellTiter-Glo Viability Assay, breast cancer; type: cell-based; conditions: Homo sapiens, 96 h; MCF7, breast cancer, four days; read-out: EC50
DU4475 = assay: CellTiter-Glo Viability Assay, breast cancer; type: cell-based; conditions: Homo sapiens, DU-4475, 96 h; DU4475, breast cancer, four days; read-out: EC50
T47D = assay: CellTiter-Glo Viability Assay, breast cancer; type: cell-based; conditions: Homo sapiens, 96 h, breast cancer, four days, read-out: EC50
HCC1599 = assay: CellTiter-Glo Viability Assay, breast cancer; type: cell-based; conditions: Homo sapiens, 96 h; HCC1599, breast cancer, four days; read-out: EC50
[1] = test system: haematopoietic & lymphoid tumors (13 cell lines); assay: CellTiter-Glo Viability Assay, haematopoietic & lymphoid tumors; type: cell-based; conditions: Homo sapiens, inhibition of cancer cell proliferation
[2] = test system: lung cancer (4 cell lines); assay: CellTiter-Glo Viability Assay, lung cancer; type: cell-based; conditions: Homo sapiens, inhibition of cancer cell proliferation
all 50 cell lines = assay: CellTiter-Glo Viability Assay, average across all cell lines; type: cell-based; conditions: Homo sapiens; across all 50 cell lines; read-out: average EC50 for inhibition of cancer cell proliferation
In short: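 Luminescent ATP read-out (CellTiter-Glo) after a 4-day compound exposure at 37° C served as the viability measure. Cells were seeded at 300-3,000/well, compound wells run in duplicate against DMSO controls, and EC50 values came from fitted dose-response curves.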

CLK2 = target: T1, CLK2 (Homo sapiens, UniProt P49760); assay: CLK2 kinase activity assay (Z-lyte, Ser/Thr 6 peptide); type: biochemical; conditions: recombinant CLK2 kinase, ATP 60 μM; read-out: EC50
T1 construct: purchased Thermo Fisher (Life Technologies), Z'-LYTE Kinase Assay Kits
T1 sequence (P49760 whole entry): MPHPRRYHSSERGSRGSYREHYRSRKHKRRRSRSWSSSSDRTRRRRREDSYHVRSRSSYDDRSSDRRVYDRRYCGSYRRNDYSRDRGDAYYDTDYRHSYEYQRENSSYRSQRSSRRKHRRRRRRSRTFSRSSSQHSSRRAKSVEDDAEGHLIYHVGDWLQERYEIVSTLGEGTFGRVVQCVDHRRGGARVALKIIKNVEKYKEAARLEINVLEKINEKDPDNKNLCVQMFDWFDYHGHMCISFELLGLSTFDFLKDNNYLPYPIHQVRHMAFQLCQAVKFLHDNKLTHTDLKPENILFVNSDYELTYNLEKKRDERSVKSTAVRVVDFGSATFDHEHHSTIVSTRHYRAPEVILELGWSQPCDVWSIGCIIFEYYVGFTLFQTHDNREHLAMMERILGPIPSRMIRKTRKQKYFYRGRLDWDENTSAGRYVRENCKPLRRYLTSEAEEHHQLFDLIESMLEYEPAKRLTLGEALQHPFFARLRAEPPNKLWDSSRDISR
Experimental: All reactions were performed in duplicate.

[3] = test system: prostate cancer (5 cell lines); assay: CellTiter-Glo Viability Assay, prostate cancer; type: cell-based; conditions: Homo sapiens
[4] = test system: ovarian cancer (4 cell lines); assay: CellTiter-Glo Viability Assay, ovarian cancer; type: cell-based; conditions: Homo sapiens, inhibition of cancer cell proliferation
[5] = test system: colorectal cancer (6 cell lines); assay: CellTiter-Glo Viability Assay, colorectal cancer; type: cell-based; conditions: Homo sapiens, inhibition of cancer cell proliferation
CLK3 = CLK3 (Homo sapiens, UniProt P49761); assay: CLK3 kinase activity assay (Z-lyte, Ser/Thr 18 peptide)
Sequence of CLK3 (P49761 whole entry): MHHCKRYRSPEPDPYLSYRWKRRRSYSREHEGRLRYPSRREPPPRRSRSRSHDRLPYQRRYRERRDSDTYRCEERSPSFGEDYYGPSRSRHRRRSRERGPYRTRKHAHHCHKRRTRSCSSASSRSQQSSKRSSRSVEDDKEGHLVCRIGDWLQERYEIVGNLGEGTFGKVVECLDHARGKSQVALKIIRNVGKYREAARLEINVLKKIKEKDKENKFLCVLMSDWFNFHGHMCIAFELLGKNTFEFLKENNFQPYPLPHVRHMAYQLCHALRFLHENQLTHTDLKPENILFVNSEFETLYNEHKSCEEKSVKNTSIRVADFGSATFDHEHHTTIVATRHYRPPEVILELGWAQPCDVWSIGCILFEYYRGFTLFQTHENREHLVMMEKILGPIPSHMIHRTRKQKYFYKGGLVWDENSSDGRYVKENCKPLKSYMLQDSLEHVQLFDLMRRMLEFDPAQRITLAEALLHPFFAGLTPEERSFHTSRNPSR

[6] = test system: pancreatic cancer (8 cell lines); assay: CellTiter-Glo Viability Assay, pancreatic cancer; type: cell-based; conditions: Homo sapiens, inhibition of cancer cell proliferation
[7] = test system: liver cancer (3 cell lines); assay: CellTiter-Glo Viability Assay, liver cancer; type: cell-based; conditions: Homo sapiens, inhibition of cancer cell proliferation

## Cn1ncc(-c2ccc3cnc(NC(=O)C4CC5(C4)CN(CCF)C5)cc3c2)c1CN1CCCCC1 [Compound 77]
BT-549
  EC50: 549 nM
CAMA1
  EC50: 1850 nM
ZR-75-1
  EC50: 826 nM
MDA-MB-231-Luc
  EC50: 890 nM
MCF7
  EC50: 1280 nM
DU4475
  EC50: 452 nM
T47D
  EC50: 1020 nM
HCC1599
  EC50: 606 nM
[1]; DND41, DND-41 cell line, read-out: Haematopoietic & Lymphoid tumors, EC50 (μM) DND-41
  EC50: 0.854 µM
[1]; MV4-11, MV-4-11 cell line, read-out: Haematopoietic & Lymphoid tumors, EC50 (μM) MV-4-11
  EC50: 0.069 µM
[1]; Rec1, REC-1 cell line, read-out: Haematopoietic & Lymphoid tumors, EC50 (μM) REC-1
  EC50: 0.361 µM
[1]; SU-DHL-4, SUDHL4 cell line, read-out: Haematopoietic & Lymphoid tumors, EC50 (μM) SUDHL4
  EC50: 0.424 µM
[1]; HL-60 cell line, read-out: Haematopoietic & Lymphoid tumors, EC50 (μM) HL-60
  EC50: 1.78 µM
[1]; JM1 cell line, read-out: Haematopoietic & Lymphoid tumors, EC50 (μM) JM1
  EC50: 0.375 µM
[1]; JURKAT, Clone E6-1 cell line, read-out: Haematopoietic & Lymphoid tumors, EC50 (μM) JURKAT, Clone E6-1
  EC50: 0.699 µM
[1]; JeKo-1 cell line, read-out: Haematopoietic & Lymphoid tumors, EC50 (μM) JeKo-1
  EC50: 0.469 µM
[1]; KASUMI-1 cell line, read-out: Haematopoietic & Lymphoid tumors, EC50 (μM) KASUMI-1
  EC50: 0.197 µM
[1]; Loucy cell line, read-out: Haematopoietic & Lymphoid tumors, EC50 (μM) Loucy
  EC50: 0.368 µM
[1]; MOLT-4 cell line, read-out: Haematopoietic & Lymphoid tumors, EC50 (μM) MOLT-4
  EC50: 1.22 µM
[1]; TF-1 cell line, read-out: Haematopoietic & Lymphoid tumors, EC50 (μM) TF-1
  EC50: 0.944 µM
[1]; TOLEDO cell line, read-out: Haematopoietic & Lymphoid tumors, EC50 (μM) TOLEDO
  EC50: 0.584 µM
[2]; A-427, A427 cell line, read-out: Lung cancer, EC50 (μM) A427
  EC50: 0.973 µM
[2]; HCC78, HCC-78 cell line, read-out: Lung cancer, EC50 (μM) HCC-78
  EC50: 1.28 µM
[2]; NCI-H460 cell line, read-out: Lung cancer, EC50 (μM) NCI-H460
  EC50: 0.649 µM
[2]; NCI-H522 cell line, read-out: Lung cancer, EC50 (μM) NCI-H522
  EC50: 0.312 µM
All 50 cell lines
  EC50: 684 nM
CLK2
  EC50: 5.8 nM
[3]; DU-145, read-out: Prostate cancer EC50 Du-145
  EC50: 734 nM
[3]; PC-3, PC3 cell line, inhibition of cancer cell proliferation, read-out: Prostate cancer EC50 PC3
  EC50: 901 nM
[3]; 22Rv1 cell line, inhibition of cancer cell proliferation, read-out: Prostate cancer EC50 22Rv1
  EC50: 814 nM
[3]; LNCap clone FGC cell line, inhibition of cancer cell proliferation, read-out: Prostate cancer EC50 LNCap clone FGC
  EC50: 432 nM
[3]; VCaP (Sigma) cell line, inhibition of cancer cell proliferation, read-out: Prostate cancer EC50 VCaP (Sigma)
  EC50: 1220 nM
[4]; PA-1, PA1 cell line, read-out: Ovarian cancer, EC50 (μM) PA1
  EC50: 0.71 µM
[4]; TOV112D, TOV-112D cell line, read-out: Ovarian cancer, EC50 (μM) TOV-112D
  EC50: 0.457 µM
[4]; OV-90 cell line, read-out: Ovarian cancer, EC50 (μM) OV-90
  EC50: 0.806 µM
[4]; OVCAR-3 cell line, read-out: Ovarian cancer, EC50 (μM) OVCAR-3
  EC50: 0.204 µM
[5]; HCT-116, HCT116 cell line, read-out: Colorectal cancer, EC50 (μM) HCT116
  EC50: 0.294 µM
[5]; HT-29, HT29 cell line, read-out: Colorectal cancer, EC50 (μM) HT29
  EC50: 0.537 µM
[5]; SW-620, SW620 cell line, read-out: Colorectal cancer, EC50 (μM) SW620
  EC50: 0.187 µM
[5]; DLD-1 cell line, read-out: Colorectal cancer, EC50 (μM) DLD-1
  EC50: 0.229 µM
[5]; SW48 cell line, read-out: Colorectal cancer, EC50 (μM) SW48
  EC50: 0.12 µM
[5]; SW480 cell line, read-out: Colorectal cancer, EC50 (μM) SW480
  EC50: 0.383 µM
CLK3
  EC50: 50 nM
[6]; BXPC-3, BxPC3 cell line, read-out: Pancreatic cancer, EC50 BxPC3
  EC50: 422 nM
[6]; CAPAN-1, Capan1 cell line, read-out: Pancreatic cancer, EC50 Capan1
  EC50: 673 nM
[6]; Capan-2, Capan2 cell line, read-out: Pancreatic cancer, EC50 Capan2
  EC50: 495 nM
[6]; MIA PaCa-2 cell line, read-out: Pancreatic cancer, EC50 MIA PaCa-2
  EC50: 318 nM
[6]; PANC 05.04 cell line, read-out: Pancreatic cancer, EC50 PANC 05.04
  EC50: 635 nM
[6]; PANC-1 cell line, read-out: Pancreatic cancer, EC50 PANC-1
  EC50: 659 nM
[6]; UPAFII cell line, read-out: Pancreatic cancer, EC50 UPAFII
  EC50: 660 nM
[7]; SNU-398, SNU398 cell line, read-out: Liver cancer, EC50 SNU398
  EC50: 339 nM
[7]; HEPG2 cell line, read-out: Liver cancer, EC50 HEPG2
  EC50: 766 nM
[7]; PLC/PRF/5 cell line, read-out: Liver cancer, EC50 PLC/PRF/5
  EC50: 2190 nM
